Experimental data taken from patent US20220047569A1, “METHOD AND COMPOUND FOR USE, IN TREATING AND/OR PREVENTING NETOSIS” (Jubilant EpiPad LLC, priority 2020, published 2022).
Where a name gives a salt, the structure may show the parent alone.

What follows are molecules tested on Histone H3 Citrullination in Neutrophils (assay: Citrullination ELISA (Citrullinated Histone H3) in calcium ionophore stimulated neutrophils). Conditions: Neutrophil; human neutrophils, 25 μM calcium ionophore, CitH3 ELISA.
Format: cell-based
Description: Neutrophils were isolated according to the EasySep Direct Human Neutrophil Isolation Kit. In short, 50 mL of blood sample was drawn in a vacutainer containing K2EDTA from a healthy donor. To the whole blood, the isolation cocktail of 50 μL/mL was added. Then, in the next step 50 μL/mL of RapidSpheres™ was added to the sample. The sample was mixed evenly with the pipette and incubated for 10 minutes at room temperature. After incubation, PBS containing 1 mM EDTA was added at the ratio of 1:1 to the blood. Then the sample tube was incubated for 10 minutes. The enriched cell suspension was transferred into a new tube and RapidSpheres™ were added at 50 μL/mL to this suspension, mixed and incubated for 10 minutes at room temperature. At this step, the enriched cell suspension was carefully collected as a clear fraction into a fresh tube. Then, previous tube was replaced with the fresh tube containing enriched cell suspension. After the final separation, the clear solution of enriched cell suspension was carefully transferred to fresh tube which was ready to use for the experiment. These cells were then subjected to wash twice with plain RPMI 1640 media without Fetal Bovine Serum (FBS) and centrifuged at 1500 rpm for 5 minutes at room temperature. Cell counts were performed on each sample by Invitrogen cell counter. After the cell count, cell density was adjusted according to the experiment and re-suspended in complete RPMI media containing RPMI1640, 2% BSA and 1 mM CaCl2.
Freshly isolated neutrophils from human donor were seeded at a density of 0.5×10^6 cells in 400 μL cell suspension/well in a 24-well plate and cells were pre-incubated with the compound for 30 minutes by adding 50 μL of the 10× concentration to achieve the final 1× concentration of compound (10 μM, 1 μM and 0.1 μM). 1% DMSO was added in control wells. Then, the cells were stimulated in the presence and absence of calcium ionophore by adding 50 μL/well to achieve the final concentration of 25 μM. Upon incubation for 30 minutes with calcium ionophore, S7 nuclease was added to the wells and incubated for 10 minutes to disrupt NET DNA. Following incubation, 10 μL of 1 mM EDTA was added to inactivate nuclease. Cells were scrapped gently and transferred to the tubes, followed by centrifugation at 1500 rpm for 5 minutes. After centrifugation, supernatant was discarded, and 200 μL of lysis buffer containing PBS and 1× Protease inhibitor was added to the tubes. The obtained lysis was then subjected to mechanical shearing using Geno grinder by spin the plate at 2500 rpm for 10 minutes, followed by collection of supernatant and stored at −20° C. or immediately used for ELISA.
ELISA was performed as per Citrullinated Histone H3 ELISA Kit. All the buffer components from the kit were dissolved according to the manufactures protocol. ELISA Buffer Concentrate (10×) (Item No. 400060) and Wash Buffer Concentrate (400×) (Item No. 400060) along with polysorbate 20 (2000×) (Item No. 400035) was diluted to 1× with milliQ water. The standard for use in the ELISA was prepared as follows: • Obtain eight clean test tubes and label them, #1 through #8. Aliquot 4.9 mL of ELISA Buffer into tube #1. • Aliquot 500 μL of ELISA Buffer into the tubes #2-8. […] This tube is considered as blank, the lowest point on the standard curve.
100 μL of standards or diluted sample was added to the appropriate wells on the 96-well plate. Plates were covered with 96-well cover sheet and incubated for two hours at room temperature on an orbital shaker. The samples and standard were removed from the wells and washed four times with Wash Buffer. After the last wash, Anti-Histone H3 HRP Conjugate (Item No. 501441) (10×) stock solution was diluted in 1×ELISA buffer and 100 μL of the HRP Conjugate working solution was added to each well of the plate and incubated for one hour at room temperature on an orbital shaker. […]

First: COc1cccc(Cn2c(-c3nc4cc(C(=O)N5CCC[C@@H](N)C5)ccn4c3C)cc3ccccc32)c1 [Compound 42, (R)-(3-aminopiperidin-1-yl)(2-(1-(3-methoxybenzyl)-1H-indol-2-yl)-3-methylimidazo[1,2-a]pyridin-7-yl)methanone]
Second: COc1cccc(Cn2c(-c3nc4cc(C(=O)N5CCC[C@@H](N)C5)ccn4c3C)cc3cc(F)ccc32)c1 [Compound 53, (R)-(3-aminopiperidin-1-yl)(2-(5-fluoro-1-(3-methoxybenzyl)-1H-indol-2-yl)-3-methylimidazo[1,2-a]pyridin-7-yl)methanone]
The IC50 of the first is lower: less than 100 nM for the first, 100 to 1000 nM for the second.

First: Cc1csc(Cn2c(-c3nc4cc(C(=O)N5CCC[C@@H](N)C5)ccn4c3C)cc3ccccc32)n1 [Compound 41, (R)-(3-aminopiperidin-1-yl)(3-methyl-2-(1-((4-methylthiazol-2-yl)methyl)-1H-indol-2-yl)imidazo[1,2-a]pyridin-7-yl)methanone]
Second: Cc1c(-c2cc3ccccc3n2Cc2ccoc2)nc2cc(C(=O)N3CCC[C@@H](N)C3)ccn12 [Compound 37, (R)-(3-aminopiperidin-1-yl)(2-(1-(furan-3-ylmethyl)-1H-indol-2-yl)-3-methylimidazo[1,2-a]pyridin-7-yl)methanone]
The IC50 of the first is higher: 100 to 1000 nM for the first, less than 100 nM for the second. The second is the more potent here.

`Cc1c(-c2cc3ccccc3n2Cc2ccncc2)nc2cc(C(=O)N3CCC[C@@H](N)C3)ccn12` [Compound 10, (R)-(3-aminopiperidin-1-yl)(3-methyl-2-(1-(pyridin-4-ylmethyl)-1H-indol-2-yl)imidazo[1,2-a]pyridin-7-yl)methanone] and `Cc1c(-c2cc3ccccc3n2Cc2cccnc2)nc2cc(C(=O)N3CCC[C@@H](N)C3)ccn12` [Compound 15, (R)-(3-aminopiperidin-1-yl)(3-methyl-2-(1-(pyridin-3-ylmethyl)-1H-indol-2-yl)imidazo[1,2-a]pyridin-7-yl)methanone] cannot be ordered by IC50: less than 100 nM for the first, less than 100 nM for the second.

Compared with `CCn1c(-c2nc3cc(C(=O)N4CCC[C@@H](N)C4)ccn3c2C)cc2cc(F)ccc21` [Compound 39, (R)-(3-aminopiperidin-1-yl)(2-(1-ethyl-5-fluoro-1H-indol-2-yl)-3-methylimidazo[1,2-a]pyridin-7-yl)methanone], `COc1ccc(Cn2c(-c3nc4cc(C(=O)N5CCC[C@@H](N)C5)ccn4c3C)cc3ccc(F)cc32)cc1` [Compound 71, (R)-(3-aminopiperidin-1-yl)(2-(6-fluoro-1-(4-methoxybenzyl)-1H-indol-2-yl)-3-methylimidazo[1,2-a]pyridin-7-yl)methanone] is higher in IC50: less than 100 nM for the first, greater than 1000 nM for the second. The first is the more potent here.

Going from `Cc1c(-c2cc3ccccc3n2Cc2cncnc2)nc2cc(C(=O)N3CCC[C@@H](N)C3)ccn12` [Compound 58, (R)-(3-aminopiperidin-1-yl)(3-methyl-2-(1-(pyrimidin-5-ylmethyl)-1H-indol-2-yl)imidazo[1,2-a]pyridin-7-yl)methanone trifluoroacetic acid salt] to `Cc1c(-c2cc3ccccc3n2Cc2ccc(F)cc2)nc2cc(C(=S)N3CCC[C@@H](N)C3)ccn12` [Compound 45, (R)-(3-aminopiperidin-1-yl)(2-(1-(4-fluorobenzyl)-1H-indol-2-yl)-3-methylimidazo[1,2-a]pyridin-7-yl)methanethione], the IC50 falls from greater than 1000 nM to less than 100 nM.

First: N[C@@H]1CCCN(C(=O)c2cc3c4c(c2)nc(-c2cc5ccccc5n2Cc2cnccn2)n4CCO3)C1 [Compound 111, (R)-(3-aminopiperidin-1-yl)(2-(1-(pyrazin-2-ylmethyl)-1H-indol-2-yl)-3,4-dihydro-5-oxa-1,2a-diazaacenaphthylen-7-yl)methanone]
Second: N[C@@H]1CCCN(C(=O)c2cc3c4c(c2)nc(-c2cc5ccccc5n2Cc2ncccn2)n4CCO3)C1 [Compound 113, (R)-(3-aminopiperidin-1-yl)(2-(1-(pyrimidin-2-ylmethyl)-1H-indol-2-yl)-3,4-dihydro-5-oxa-1,2a-diazaacenaphthylen-7-yl)methanone]
The IC50 of the first is higher: 100 to 1000 nM for the first, less than 100 nM for the second.

First: COc1ccc2cc(-c3nc4cc(C(=O)N5CCC[C@@H](N)C5)cc5c4n3CCO5)n(Cc3ccc(F)cc3)c2c1 [Compound 137, (R)-(3-aminopiperidin-1-yl)(2-(1-(4-fluorobenzyl)-6-methoxy-1H-indol-2-yl)-3,4-dihydro-5-oxa-1,2a-diazaacenaphthylen-7-yl)methanone]
Second: N[C@@H]1CCCN(C(=O)c2cc3c4c(c2)nc(-c2cc5ccc(F)cc5n2Cc2ccc(F)cc2)n4CCO3)C1 [Compound 135, (R)-(3-aminopiperidin-1-yl)(2-(6-fluoro-1-(4-fluorobenzyl)-1H-indol-2-yl)-3,4-dihydro-5-oxa-1,2a-diazaacenaphthylen-7-yl)methanone]
The IC50 of the first is higher: greater than 1000 nM for the first, less than 100 nM for the second. The second is the more potent here.

First: Cc1c(-c2cc3cccc(Cl)c3n2CC2CC2)nc2cc(C(=O)N3CCC[C@@H](N)C3)ccn12 [Compound 44, (R)-(3-aminopiperidin-1-yl)(2-(7-chloro-1-(cyclopropylmethyl)-1H-indol-2-yl)-3-methylimidazo[1,2-a]pyridin-7-yl)methanone]
Second: N[C@@H]1CCCN(C(=O)c2cc3c4c(c2)nc(-c2cc5ccccc5n2CC2CC2)n4CCO3)C1 [Compound 87, (R)-(3-aminopiperidin-1-yl)(2-(1-(cyclopropylmethyl)-1H-indol-2-yl)-3,4-dihydro-5-oxa-1,2a-diazaacenaphthylen-7-yl)methanone]
The IC50 of the first is lower: less than 100 nM for the first, 100 to 1000 nM for the second.

`COc1ccc2c(c1)cc(-c1nc3cc(C(=O)N4CCC[C@@H](N)C4)cc4c3n1CCO4)n2CC1CC1` [Compound 146, (R)-(3-aminopiperidin-1-yl)(2-(1-(cyclopropylmethyl)-5-methoxy-1H-indol-2-yl)-3,4-dihydro-5-oxa-1,2a-diazaacenaphthylen-7-yl)methanone] and `COCCn1c(-c2nc3cc(C(=O)N4CCC[C@@H](N)C4)cc4c3n2CCO4)cc2cc(F)ccc21` [Compound 134, (R)-(3-aminopiperidin-1-yl)(2-(5-fluoro-1-(2-methoxyethyl)-1H-indol-2-yl)-3,4-dihydro-5-oxa-1,2a-diazaacenaphthylen-7-yl)methanone] fall in the same range of IC50: 100 to 1000 nM for the first, 100 to 1000 nM for the second.

First: N[C@@H]1CCCN(C(=O)c2cc3c4c(c2)nc(-c2cc5cc(Br)ccc5n2CC2CC2)n4CCN3)C1 [Compound 153, (R)-(3-aminopiperidin-1-yl)(2-(5-bromo-1-(cyclopropylmethyl)-1H-indol-2-yl)-5,6-dihydro-4H-imidazo[1,5,4-de]quinoxalin-8-yl)methanone]
Second: N[C@@H]1CCCN(C(=O)c2cc3c4c(c2)nc(-c2cc5c(F)cccc5n2CC2CC2)n4CCN3)C1 [Compound 166, (R)-(3-aminopiperidin-1-yl)(2-(1-(cyclopropylmethyl)-4-fluoro-1H-indol-2-yl)-5,6-dihydro-4H-imidazo[1,5,4-de]quinoxalin-8-yl)methanone]
The IC50 of the first is lower: less than 100 nM for the first, 100 to 1000 nM for the second.

Compared with `Cc1c(-c2cc3ccccc3n2Cc2ccc(F)cc2)nc2cc(C(=O)N3CCC[C@@H](NC(=O)/C=C/CN(C)C)C3)ccn12` [Compound 56, (R,E)-4-(dimethylamino)-N-(1-(2-(1-(4-fluorobenzyl)-1H-indol-2-yl)-3-methylimidazo[1,2-a]pyridine-7-carbonyl)piperidin-3-yl)but-2-enamide], `Cc1csc(Cn2c(-c3nc4cc(C(=O)N5CCC[C@@H](N)C5)cc5c4n3CCO5)cc3ccccc32)n1` [Compound 145, (R)-(3-aminopiperidin-1-yl)(2-(1-((4-methylthiazol-2-yl)methyl)-1H-indol-2-yl)-3,4-dihydro-5-oxa-1,2a-diazaacenaphthylen-7-yl)methanone] is lower in IC50: greater than 1000 nM for the first, less than 100 nM for the second.

For `CN1CCn2c(-c3cc4cc(F)ccc4n3CC3CC3)nc3cc(C(=O)N4CCC[C@@H](N)C4)cc1c32` [Compound 161, (R)-(3-aminopiperidin-1-yl)(2-(1-(cyclopropylmethyl)-5-fluoro-1H-indol-2-yl)-6-methyl-5,6-dihydro-4H-imidazo[1,5,4-de]quinoxalin-8-yl)methanone], the IC50 was less than 100 nM.
